The test system of assay [1] is monoclonal antibody Dx02-I-0. The assay can be described thus: Standard curve by indirect competitive assay, inhibition by 2,3,4,7,8-PeCDF. Particulars: purified antibody Dx02-I-0, immobilized II-1, FIG. 1. The class given is binding, mouse. How it is done:
II-1 was immobilized onto a microtiter plate at room temperature for one hour, and the plate was washed three Limes with the washing solution (300 μl). A solution (300 μl) of Block Ace prepared by 4-fold diluting with deionized water was then added to the wells, and the wells were blocked at room temperature for 2 hours. The wells were washed three times with the washing solution. […]
The wells were then washed, and a secondary antibody, i.e. a solution (50 μl) of a horseradish peroxidase-labeled anti-mouse IgG (recognizing γ-chain) prepared by 3000-fold diluting with a solution of Block Ace 10-fold diluted with deionized water was added to the wells, and reacted at room temperature for one hour. […] After 5 to 15 minutes, the reaction was terminated by adding 1 M phosphoric acid (50 μl), and the absorbance at 450 nm was immediately measured using a microplate reader. The ratio (B/B0) of an absorbance value (B) in the well to which one of dioxins was added, to control OD (B0) was calculated, and the calculated values were plotted against the concentrations of the added dioxin with single logarithm to obtain a typical sigmoid curve (FIG. 1).

Assay [2] relates to monoclonal antibody Dx02-I-0. As to the kind of experiment: Cross-reactivity of monoclonal antibody Dx02-I-0 by indirect competitive assay (ELISA, II-1 immobilized). The class given is binding, mouse. As for the experimental part:
According to the method used for determination of the antibody titer, antigen II-1 or II-2 was immobilized onto wells of a microtiter plate and the wells were washed. A solution (300 μl) of Block Ace 4-fold diluted with deionized water was then added to the wells, and the wells were blocked by allowing it to stand at room temperature for 2 hours. The wells were washed three times with the washing solution (300 μl). The supernatant (25 μl) of the culture containing a primary antibody as well as a solution (25 μl) of various concentrations of a phenoxathiin derivative (I-1 or I-2), which is a compound for screening having a structure similar to that of dioxins and having a reduced toxicity, in 20% DMSO and 0.01% Triton-X100, or a solution (25 μl) of various concentrations of dioxins in 20% DMSO and 0.01% Triton-X100, or a solution (25 μl) containing neither the phenoxathiin derivatives nor the dioxins in 20% DMSO and 0.01% Triton-X100 which serves as a control were then added to the wells and mixed in the wells. The wells were allowed to stand at room temperature for 10 to 30 minutes to effect an antigen-antibody reaction.
The wells were washed three times with the washing solution (300 μl). Then, in order to detect the primary antibody which was bound to II-1 or II-2 immobilized onto the plate, a solution (50 μl) of a horseradish peroxidase-labeled anti-mouse IgG (recognizing γ-chain) prepared by 3000-fold diluting with a solution of Block Ace 10-fold diluted with deionized water was added to the wells as a solution of a secondary antibody, and reacted at room temperature for one our. After the wells were again washed three times with the washing solution (300 μl), a TMB solution was added to the wells, and a coloration reaction was effected at room temperature. After 5 to 15 minutes, the reaction was terminated by adding 1 M phosphoric acid (50 μl), and the absorbance at 450 nm was immediately measured using a microplate reader. The ratio (B/B0) of an absorbance value (B) in the well to which one of phenoxathiin derivatives or dioxins was added, to an absorbance value (control OD; B0) in the well to which only a solution of 20% DMSO and 0.01% Triton-X100 was added but neither the phenoxathiin derivatives nor the dioxins were added, was calculated to evaluate the reactivity of the primary antibody. A hybridoma in the well in which a continuously high production of an antibody having a high binding activity against the antigens was recognized was selected, expanded, and cloned by a limiting dilution method.
Using monoclonal antibody Dx02-I-0, the cross-reactivity with 17 kinds of dioxins each having a toxicity value and 12 kinds of coplanar PCBs was evaluated by an indirect competitive assay. II-1 (50 μl) was added to wells in a microtiter plate, and the wells were allowed to stand at room temperature for one hour and then washed. After the wells were blocked, various concentrations of one of dioxins (25 μl) dissolved in 20% DMSO and 0.01% Triton-X100 or a solution (25 μl) of 20% DMSO and 0.01% Triton-X100 not containing any dioxin which serves as a control as well as a solution (25 μl) of the antibody diluted with 0.01 to 0.1% BSA were added to the wells in the plate, and reacted at room temperature for 10 to 30 minutes.
Then, a coloration reaction was effected using a secondary antibody against the antibody bound to the solid phase, i.e. a peroxidase-labeled anti-mouse IgG antibody (recognizing γ-chain) as well as TMB. After the enzyme reaction was terminated, the absorbance at 450 nm was immediately measured. The B/B0 values were plotted for various dioxins, IC50 values were calculated from the resulting figures, and the cross-reactivity of the antibody was obtained from these values (Table 3).

Results on one molecule are retold here after US7038021B2, “Anti-dioxins monoclonal antibody suitable for assaying dioxins in environment and hybridoma producing the same” (priority 2004, dated 2006).

Each structure is given as a SMILES string. Values after ≈ are worked out from the molar mass of the structure shown.

As for `Clc1cc2oc3c(Cl)c(Cl)c(Cl)cc3c2cc1Cl` [2,3,4,7,8-PeCDF, 2,3,4,7,8-pentachlorodibenzofuran], the “detectable concentration in the assay system” value in assay [1] was not above 1 ng/mL. Besides, in assay [2] (assuming the reactivity with 1,2,3,7,8-PeCDF is 100%), the “reactivity (cross-reactivity) of the antibody” value came to 16%. In addition, the IC50 in assay [2] (indirect competitive assay, immobilized II-1, 20% DMSO and 0.01% Triton-X100, room temperature 10 to 30 minutes) is 5.86 ng/mL (≈ 0.0172 µM). In assay [2] (obtained from IC50 values, 1,2,3,7,8-PeCDF = 100), the Cross-reactivity turned out to be 16.

The IC50 is the concentration that gives 50% inhibition. High values mean weaker potency, low ones greater potency.
